# Laboratory results published in PMC10605077, “In Vitro and In Silico Antiviral Activity of Di-Halogenated Compounds Derived from L-Tyrosine against Human Immunodeficiency Virus 1 (HIV-1)” (Current Issues in Molecular Biology, 2023).
# Entries after “also recorded” stand apart in the source; their conditions may differ.
# What was measured:
# PBMC = experiment: Viability assay of PBMC, flow cytometry with viability dye; type: cell-based, Human; conditions: PBMCs
# Method: (§1) PBMCs were thawed and let in the culture in RPMI with 10% fetal bovine serum (FBS) (Gibco, Grand Island, NY, USA) for 24 h before each experiment. Cells were stimulated for 48 h with 8 μg/mL of Phytohemagglutinin-PHA (Sigma-Aldrich, St. Louis, MO, USA) and 50 UI/mL of IL-2 (Peprotech, Rocky Hill, CT, USA). In the presence of various concentrations of di-halogenated compounds derived from L-Tyrosine, 2 × 10^5 cells per well were treated and resuspended in 200 µL of fresh medium with 20 UI/mL of IL-2 and incubated in 96-well culture plates for 7 days. After 7 days post-treatment, cell viability was determined using flow cytometry. Briefly, cells were stained with fixable viability dye eFluor 506 (eBioscience, Leicestershire, UK) as detailed in the manufacturer’s protocol for 30 min in the dark. Later, cells were washed and resuspended in PBS, and the percentage of viable cells was measured instead in the LS Fortessa cytometer (BD Biosciences, Franklin Lakes, NJ, USA). Data were analyzed using FlowJo version 10.5.3 (FlowJo, LLC, Ashland, OR, USA).
# HIV-1 BaL [1] = experiment: Anti-HIV activity in PBMC, p24 ELISA of supernatant; type: cell-based; conditions: Human immunodeficiency virus 1, BAL, PBMC, AZT (10 µM); read-out: inhibition of HIV-1 BaL in PBMC, extracellular p24 ELISA
# HIV-1 BaL (R5) = experiment: Anti-HIV activity in infected TZM-bl cells (luciferase), pre- and post-infection treatment; type: cell-based, Human Immunodeficiency Virus Type 1 (HIV-1)
# Method: (§2) TZM-bl cells were plated in a flat-bottom 96-well plate (Corning Inc., Corning, New York, NY, USA) at the concentration of 1.2 × 10^5 cells/well and incubated for 24 h at 37 °C before the addition or not of each compound at non-cytotoxic concentrations (pre-infection treatment). Then, 1 h later the treatment was removed, and the infection was performed by adding 10 ng/mL of HIV-1IIIB p24 (X4) or 2 ng/mL of HIV-1 BaL (R5). After 3 h, the virus was removed and washed, and the compound dilutions were added again (post-infection treatment). Additionally, three wells were left for the negative control (cells without treatment or infection), the positive control of infection (cells infected with the virus without treatment), and the positive control of inhibition (AZT). Antiviral activity was quantified 48 h after treatment by measuring luciferase activity, which is directly proportional to the number of infectious virus particles in the sample [23]. The luciferase activity was quantified via luminescence emitted by the cells using Bright-GloTM Luciferase Assay System (Promega Corp., Madison, WI, USA), following the manufacturer’s instructions. Briefly, 100 μL of the reagent was added to 100 μL of TZM-bl cells and incubated for at least 2 min, protected from light. Relative light units (RLUs) were measured using the multi-mode plate reader (Thermo ScientificTM VarioskanTM LUX). Each experimental condition was performed in triplicate in two independent experiments (n = 6). The percentage inhibition was calculated as follows: 100 − (RLU of treated cells − RLU of uninfected cells/RLU of infection control − RLU of uninfected cells) × 100.
# HIV-1IIIB (X4) = experiment: as above; type: cell-based, Human Immunodeficiency Virus Type 1 (HIV-1); conditions: for SI: selectivity index against HIV-1IIIB (CC50 and IC50 of Table 4)
# Method: as §2
# [2] = tested on: HIV-GFP-VSV-G reporter virus; experiment: microbe, parasite or virus in culture; type: cell-based, HIV-1
# HIV-1 BaL [3] = experiment: Anti-HIV activity in PBMC, intracellular p24 by flow cytometry; type: cell-based
# Method: In the presence of various concentrations of the most bioactive compounds, 1×10^6 PBMCs previously stimulated with 8 μg/mL of PHA and 50UI/mL of IL-2 were treated for 1 h. […] After spinoculation, cells were washed twice with PBS 1x to remove free virions, and then, fresh medium supplemented with 20 UI/mL of IL-2, with or without the di-halogenated compounds derived from L-Tyrosine dilutions, was added. Cells were plated in 96-well culture plates and incubated for 7 days. […] In addition, antiviral activity was also assessed by measuring intracellular p24 in harvested cells. Briefly, cells were stained with fixable viability dye eFluor 506 (eBioscience, Leicestershire, UK), CD3 (UCHT1; Thermo Scientific, Wilmington, DE, USA), CD4 (RPA-T4; BD Biosciences, San Jose, CA, USA), and p24 PE (KC57; Beckman Coulter, Pasadena, CA, USA), as detailed in the manufacturer’s protocol. Later, cells were washed and resuspended in PBS, and the lecture was measured instead in the LS Fortessa cytometer (BD Biosciences, Franklin Lakes, NJ, USA). Data were analyzed using FlowJo version 10.5.3 (FlowJo, LLC, Ashland, OR, USA).
# TZM-bl cells = experiment: MTT cytotoxicity assay; type: cell-based
# Method: (§3) The in vitro cytotoxic effect of the di-halogenated compounds on TZM-bl cells was determined with the MTT (3-(4,5-Dimethylthiazol-2-yl)-2,5-diphenyltetrazolium bromide) assay (Sigma-Aldrich, St. Louis, MO, USA). For this purpose, 1.2 × 10^5 cells/well were seeded in 96-well plates, which were incubated at 37 °C and 5% CO2 for 24 h. DMEM was used as a negative control and serial two-fold dilutions of the compounds were performed at 9.37 to 300 μM in DMEM supplemented with 5% FBS. A total of 100 μL/well of each dilution was added and incubated for 48 h. Subsequently, the cells were washed 2 times with 1X PBS, and 30 μL of MTT solution (2 mg/mL) was added and incubated for 2 h at 37 °C, in a light-protected culture. Then, 100 µL of DMSO was added to dissolve the formazan crystals, placed in shaking for 15 min, and absorbance reading was performed at 570 nm, using the Microplate Spectrophotometer (Thermo Scientific™ Multiskan™ GO, Waltham, MA, USA). Two independent experiments evaluated each experimental condition in quadruplicate (n = 8). The percentage of viability was calculated concerning the absorbance of the controls without a compound (100% viability). The 50% cytotoxic concentration was defined as the concentration of each compound that can reduce cell viability to 50% of the untreated cell control. CC50 was calculated and analyzed with GraphPad Prism version 8.0.1 (GraphPad Software, Inc., San Diego, CA, USA).
# [4] = Viability assay of PBMC, flow cytometry with viability dye; type: cell-based, Human; conditions: human, PBMC stimulated with PHA and IL-2; all concentrations tested (18.75 μM up to 150 μM), 7 days; read-out: viability level on PBMCs
# Method: as §1
# MTT cytotoxicity assay = type: cell-based; conditions: human; TZM-bl cells, MTT, 48 h
# Method: as §3
# [5] = Human immunodeficiency virus 1, TZM-bl, read-out: percentage inhibition of HIV-GFP-VSV-G replication
# [6] = Human immunodeficiency virus 1, BAL, TZM-bl cells, read-out: Percentage inhibition of HIV-1 BaL replication
# [7] = Human immunodeficiency virus 1, TZM-bl, TZM-bl cells, read-out: Percentage inhibition of HIV-1IIIB (X4 strain) replication
smiles,measurement,setting,value
"Cc1cn([C@H]2C[C@H](N=[N+]=[N-])[C@@H](CO)O2)c(=O)[nH]c1=O [AZT, Zidovudine, reference compound]",toxicity in words,PBMC,Neither the viral inhibition control (AZT) nor the solvent (DMSO) proved toxic
same,inhibition at 10 µM,HIV-1 BaL [1],> 90%
same,inhibition at 10 µM,"HIV-1 BaL (R5); Human immunodeficiency virus 1, BAL, TZM-bl, read-out: inhibition of viral infection (HIV-1 BaL)",> 90%
same,inhibition at 10 µM,"HIV-1IIIB (X4); Human immunodeficiency virus 1, TZM-bl, read-out: inhibition of virus infections (HIV-1IIIB)",> 90%
same,inhibition at 10 µM,[2]; [5],93.2%
same,inhibition at 10 µM,"HIV-1 BaL [3]; Human immunodeficiency virus 1, BAL, PBMC, AZT (10 µM), positive control, read-out: inhibition of HIV-1 BaL replication in PBMC, flow cytometry (intracellular p24)",99.4%
same,toxicity in words,TZM-bl cells,Neither the viral inhibition control (AZT) nor the solvent (DMSO) was toxic
COc1c(Br)cc(C[C@@H](C(=O)O)N(C)C)cc1Br [TODB-2M],viability at 7 days,[4],> 90%
same,IC50,"HIV-1 BaL (R5); Human immunodeficiency virus 1, BAL, TZM-bl, 48 h, HIV-1 BaL (R5), TZM-bl cells, luciferase",114 µM
same,inhibition at 18 µM,HIV-1 BaL (R5); [6],36.3%
same,inhibition at 37 µM,HIV-1 BaL (R5); [6],34.1%
same,inhibition at 75 µM,"HIV-1 BaL (R5); Human immunodeficiency virus 1, BAL, 75 µM, TZM-bl cells, read-out: Percentage inhibition of HIV-1 BaL replication",37.7%
same,inhibition at 150 µM,"HIV-1 BaL (R5); Human immunodeficiency virus 1, BAL, 150 µM, TZM-bl cells, read-out: Percentage inhibition of HIV-1 BaL replication",45.8%
same,SI,HIV-1 BaL (R5); selectivity index against HIV-1 BaL (CC50 and IC50 of Table 3),1.45
same,inhibition at 18 µM,HIV-1IIIB (X4); [7],22.2%
same,inhibition at 37 µM,HIV-1IIIB (X4); [7],-4%
same,inhibition at 75 µM,HIV-1IIIB (X4); [7],9.9%
same,inhibition at 150 µM,"HIV-1IIIB (X4); Human immunodeficiency virus 1, TZM-bl, 150 µM, TZM-bl cells, read-out: Percentage inhibition of HIV-1IIIB (X4 strain) replication",95.9%
same,IC50,"HIV-1IIIB (X4); Human immunodeficiency virus 1, HIV-1IIIB (X4), TZM-bl cells, luciferase, 48 h",~82.7 µM
same,SI,HIV-1IIIB (X4),~1.99
same,SI,[2],1.16
same,IC50,"[2]; Human immunodeficiency virus 1, TZM-bl, 48 h",142 µM
same,inhibition at 150 µM,[2]; [5],44.2%
same,inhibition at 75 µM,"HIV-1 BaL [3]; Human immunodeficiency virus 1, BAL, PBMC, 168 h, 75 μM, 7 days, read-out: inhibition of HIV-1 BaL replication in PBMC, flow cytometry (intracellular p24)",56.5%
same,inhibition at 150 µM,"HIV-1 BaL [3]; Human immunodeficiency virus 1, BAL, PBMC, 168 h, 150 µM, 7 days, read-out: inhibition of HIV-1 BaL replication in PBMC, flow cytometry (intracellular p24)",> 60%
same,"inhibition of HIV-1 BaL replication in PBMC, flow cytometry (intracellular p24)","HIV-1 BaL [3]; all concentrations, 7 days",over 50%
same,CC50 at 48 h,MTT cytotoxicity assay,165 µM
C[N+](C)(C)CCc1cc(Br)c(O)c(Br)c1 [YDB-3M],anti-HIV activity against R5 strain in words,"HIV-1 BaL (R5); HIV-1 BaL, TZM-bl cells",had no activity; also recorded: did not show significant anti-HIV activity
same,inhibition at 18 µM,HIV-1 BaL (R5); [6],7.2%
same,inhibition at 37 µM,HIV-1 BaL (R5); [6],-10.2%
same,inhibition at 18 µM,HIV-1IIIB (X4); [7],39.2%
same,inhibition at 37 µM,HIV-1IIIB (X4); [7],1.8%
same,inhibition at 75 µM,HIV-1IIIB (X4); [7],-19.4%
same,SI,HIV-1IIIB (X4),~32.65
same,cytotoxicity level,"TZM-bl cells; 150 μM, 48 h",higher level of cytotoxicity
same,CC50 at 48 h,MTT cytotoxicity assay,~101 µM
